Experimental data: patent US20140137294A1, “GLUCOSINOLATE TRANSPORTER PROTEIN AND USES THEREOF” (UNIVERSITY OF COPENHAGEN, priority 2010, published 2014)

Molecular target: T1, AtGTR1 (Arabidopsis thaliana, UniProt Q944G5)
T1 construct: A library of Arabidopsis transporters available as full length cDNAs from the RIKEN bioresource center; expressed in transfected cells; host or cells: Xenopus oocytes injected with in vitro transcribed cRNA
T1 sequence (Q944G5 31-636 limits assumed): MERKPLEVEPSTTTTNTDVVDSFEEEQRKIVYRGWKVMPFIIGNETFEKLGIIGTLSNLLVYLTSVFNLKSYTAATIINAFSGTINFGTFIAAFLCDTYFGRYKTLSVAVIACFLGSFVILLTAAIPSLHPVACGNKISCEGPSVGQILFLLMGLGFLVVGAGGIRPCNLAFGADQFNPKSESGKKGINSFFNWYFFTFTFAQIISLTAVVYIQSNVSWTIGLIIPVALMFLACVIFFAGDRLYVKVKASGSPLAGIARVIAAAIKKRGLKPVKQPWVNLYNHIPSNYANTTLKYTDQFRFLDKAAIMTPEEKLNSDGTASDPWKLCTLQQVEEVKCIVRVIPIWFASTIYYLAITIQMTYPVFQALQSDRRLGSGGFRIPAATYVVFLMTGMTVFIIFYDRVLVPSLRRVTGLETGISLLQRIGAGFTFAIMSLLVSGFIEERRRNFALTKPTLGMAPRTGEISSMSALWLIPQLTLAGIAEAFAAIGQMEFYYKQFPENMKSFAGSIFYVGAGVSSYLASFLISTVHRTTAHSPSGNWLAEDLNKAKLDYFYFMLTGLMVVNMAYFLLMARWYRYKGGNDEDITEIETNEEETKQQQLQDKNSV
Test: Uptake of C14-labeled pOHBG in AtGTR1 expressing oocytes in presence of excess competitor
Type: cell-based
Settings: 50× excess unlabeled competitor, AtGTR1, pH 5
Experimental: FIG. 3: Biochemical analysis of AtGTR1 and 2 mediated GSL transport in Xenopus oocytes. A and B, pH dependence of AtGTR-mediated GSL transport. A, AtGTR2 mediated 4-MTB uptake measured by LC-MS analysis of oocyte extracts, n=3 oocytes. B, AtGTR1 currents induced by 1 mM 4-MTB were measured at different membrane potentials at pH 5 ([…]), pH 6 (♦), and pH 7 (▴). Currents were normalized to the current induced at pH 5 at −60 mV, error bars are SD, n=4 oocytes. C and D, kinetic analysis of AtGTR-mediated glucosinolate transport. […]
The substrate specificity investigations were extended to include substrates previously identified for the NRT/PTR transporter family namely di- and tripeptides and nitrate. […] However, perfusing with 1 mM NO3^− did result in currents but these amounted only to 1/10th of currents measured when perfusing with 100 μM 4-MTB (FIG. 3F). […]
For assays with radiolabeled substrates, single oocytes were ruptured in 100 μl 10% SDS in 4 ml scintillation vials by shaking for 20-30 minutes. 2.5 ml EcoScint™ scintillation fluid (National Diagnostics) was added, and imported compounds quantified by scintillation counting. For assays with unlabeled substrates, oocyte extracts were analysed by LC-MS. Oocytes were analyzed in batches of 5 oocytes per repetition. […]

## CSCCCC/C(=N/OS(=O)(=O)O)S[C@@H]1O[C@H](CO)[C@@H](O)[C@H](O)[C@H]1O [4-MTB, 4-methylthiobutyl glucosinolate]
  effect on uptake of 40 μM C14-labeled pOHBG: reduced the uptake of pOHBG to background levels
